In paper PMC12283027, “Development of Potent and Selective RIPK1 Degraders Targeting Its Nonenzymatic Function for Cancer Treatment” (Journal of Medicinal Chemistry, 2025) one finds Dmax data, which are given here for five compounds.

For this experiment, the target named is T1, Receptor-interacting protein kinase 1 (RIPK1) (Homo sapiens, UniProt Q13546).
T1 construct: with VHL
T1 sequence (Q13546 whole entry): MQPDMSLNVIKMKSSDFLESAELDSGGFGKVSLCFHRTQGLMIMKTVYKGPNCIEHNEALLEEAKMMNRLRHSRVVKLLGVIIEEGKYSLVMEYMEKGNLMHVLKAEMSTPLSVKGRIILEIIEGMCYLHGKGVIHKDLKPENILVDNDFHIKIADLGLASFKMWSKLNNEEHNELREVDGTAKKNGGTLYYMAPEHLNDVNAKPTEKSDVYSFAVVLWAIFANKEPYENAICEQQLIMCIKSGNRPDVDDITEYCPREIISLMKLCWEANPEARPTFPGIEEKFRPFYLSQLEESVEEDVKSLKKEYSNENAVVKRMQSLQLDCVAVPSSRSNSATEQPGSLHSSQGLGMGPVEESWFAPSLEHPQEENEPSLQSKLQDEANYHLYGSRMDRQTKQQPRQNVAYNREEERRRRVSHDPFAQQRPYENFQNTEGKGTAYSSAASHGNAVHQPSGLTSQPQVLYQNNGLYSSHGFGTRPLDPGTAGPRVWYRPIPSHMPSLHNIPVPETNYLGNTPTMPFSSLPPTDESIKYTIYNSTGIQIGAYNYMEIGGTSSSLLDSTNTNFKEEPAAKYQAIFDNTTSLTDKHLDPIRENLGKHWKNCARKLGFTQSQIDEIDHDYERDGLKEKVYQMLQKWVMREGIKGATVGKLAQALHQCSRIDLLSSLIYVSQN
T1 sequence (P40337 whole entry partner): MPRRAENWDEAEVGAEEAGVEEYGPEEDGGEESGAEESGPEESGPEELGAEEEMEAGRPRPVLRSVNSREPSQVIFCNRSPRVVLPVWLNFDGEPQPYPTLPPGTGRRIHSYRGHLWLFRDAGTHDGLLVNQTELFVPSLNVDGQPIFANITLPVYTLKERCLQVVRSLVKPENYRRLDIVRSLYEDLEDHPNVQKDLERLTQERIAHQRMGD
As to the kind of experiment: cell-based. The conditions noted are these: HEK293T-RIPK1-HiBiT cells; read-out: Dmax (HEK293T-RIPK1-HiBiT cell line). Also on record: HiBiT luminescence of CRISPR-tagged endogenous RIPK1 (C-terminal HiBiT) after PROTAC treatment; degradation DC50 and Dmax. The procedure: Screening of RIPK1 Degraders Using HEK-293T-RIPK1-HiBiT cells  3 Primary screening RIPK1 degraders using HEK293T-RIPK1-HiBiT cell line. Cells were seeded in 96-well plates and treated with test compounds for 20 h. After treatment, Bioluminescence signal reflecting RIPK1 protein level was generated by adding Nano-Glo HiBiT detect reagent. A) Bioluminescence signal was visualized using Bio-Rad ChemiDoc MP Imaging system. The grayscale intensity is positively correlated with protein abundance. B) Relative luminescence Units (RLUs) in each well was measured using CLARIOstar plate reader. DC50 values were calculated by nonlinear regression analysis in GraphPad Prism software. DC50 = dose that reduces RIPK1 protein by 50%. D max = maximum reduction of RIPK1 protein achieved by the compound. Guide RNA oligos for RIPK1 (foward: CACCGA-GCCCAT-CCAGGG-TTAGTTC. reverse: AAACGA-ACTAAC-CCTGGA-TGGGCTC) were cloned into Cas9 expression plasmid (pSpCas9–2A-GFP purchased from Addgene), and cotransfected with donor DNA oligo using FuGENE HD Transfection Reagent (Promega). GFP positive cells were FACS sorted and single clones were screened for HiBiT signal by Nano Glo HiBiT Lytic Detection System (Promega).
For the compound `Cc1ncsc1-c1ccc([C@H](C)NC(=O)[C@@H]2C[C@@H](O)CN2C(=O)[C@@H](NC(=O)CCCOc2ccc(CNC(=O)Cn3cc(-c4cnc(N)c5c(-c6ccc7c(c6)CCN7C(=O)Cc6ccccc6)csc45)cn3)cc2)C(C)(C)C)cc1` [214-7], the Dmax – broadly, the largest share of the target that was removed – was 81%.

For the compound `Cc1ncsc1-c1ccc([C@H](C)NC(=O)[C@@H]2C[C@@H](O)CN2C(=O)[C@@H](NC(=O)CCCCCCCCNC(=O)Cn2cc(-c3cnc(N)c4c(-c5ccc6c(c5)CCN6C(=O)Cc5ccccc5)csc34)cn2)C(C)(C)C)cc1` [216-16], the Dmax was 93%.

As for `Cc1ncsc1-c1ccc([C@H](C)NC(=O)[C@@H]2C[C@@H](O)CN2C(=O)[C@@H](NC(=O)CCNC(=O)Cn2cc(-c3cnc(N)c4c(-c5ccc6c(c5)CCN6C(=O)Cc5ccccc5)csc34)cn2)C(C)(C)C)cc1` [216-10], the Dmax was found to be 25%.

As for `Cc1ncsc1-c1ccc([C@H](C)NC(=O)[C@@H]2C[C@@H](O)CN2C(=O)[C@@H](NC(=O)CCCOc2ccc(CCNC(=O)Cn3cc(-c4cnc(N)c5c(-c6ccc7c(c6)CCN7C(=O)Cc6ccccc6)csc45)cn3)cc2)C(C)(C)C)cc1` [204-6], the Dmax is 81%.

`Cc1ncsc1-c1ccc([C@H](C)NC(=O)[C@@H]2C[C@@H](O)CN2C(=O)[C@@H](NC(=O)CN2CCN(CC3CCN(CC4CCN(C(=O)Cn5cc(-c6cnc(N)c7c(-c8ccc9c(c8)CCN9C(=O)Cc8ccccc8)csc67)cn5)CC4)CC3)CC2)C(C)(C)C)cc1` [225-5, (2S,4R)-1-((S)-2-(2-(4-((1-((1-(2-(4-(4-Amino-3-(1-(2-phenylacetyl)indolin-5-yl)thieno[3,2-c]pyridin-7-yl)-1H-pyrazol-1-yl)acetyl)piperidin-4-yl)methyl)piperidin-4-yl)methyl)piperazin-1-yl)acetamido)-3,3-dimethylbutanoyl)-4-hydroxy-N-((S)-1-(4-(4-methylthiazol-5-yl)phenyl)ethyl)pyrrolidine-2-carboxamide]: the Dmax came out at 93%.
